{"source": "PubChem BioAssay AID1259246", "about": "(Broad Institute, 2017)", "note": "Inconclusive results are not listed. Calls of active or inactive are those of the source.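 Rule for the calls: active = valid dose-response fit whose half-maximal growth-inhibiting concentration is at or below a set limit above the top tested dose; inconclusive = flat fit with effect between 30 and 70%, or poor fit; inactive = half-maximal concentration above a set limit.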"}
{"test": "antibacterial activity against Clostridioides difficile – 10-point retest, dose response (AID 1259246)", "settings": "Clostridioides difficile clinical isolate growth, OD600, 24 h; at 60 µM (top of the series)"}
{"smiles": "C[C@@H]1CN([C@@H](C)CO)S(=O)(=O)c2ccc(C#Cc3ccccc3F)cc2O[C@@H]1CN(C)CC1CCOCC1", "activity change, negative = inhibition": "3.46% (inactive)"}
{"smiles": "O=C(C[C@H]1C[C@@H]2c3cc(NC(=O)Nc4ccc(F)cc4)ccc3O[C@@H]2[C@@H](CO)O1)NC1CCCCC1", "activity change, negative = inhibition": "0.486% (inactive)"}
{"smiles": "CN(C)CC(=O)N1[C@@H](C#N)[C@H](c2ccc(C#CC3CCCCC3)cc2)[C@@H]1CO", "activity change, negative = inhibition": "0.345% (inactive)"}
{"smiles": "COc1ccccc1C#Cc1ccc([C@H]2[C@@H](C#N)N(C(=O)C3CCCCC3)[C@H]2CO)cc1", "activity change, negative = inhibition": "5.31% (inactive)"}
{"smiles": "COc1ccccc1CNC(=O)C[C@H]1C[C@H]2c3cc(NC(=O)NC4CCCC4)ccc3O[C@H]2[C@H](CO)O1", "activity change, negative = inhibition": "-5.15% (inactive)"}
{"smiles": "COc1ccc(CNC(=O)C[C@H]2C[C@@H]3c4cc(NC(=O)C5CCC5)ccc4O[C@@H]3[C@@H](CO)O2)cc1", "activity change, negative = inhibition": "-1.06% (inactive)"}
{"smiles": "O=C(C[C@H]1C[C@@H]2c3cc(NC(=O)C4CCC4)ccc3O[C@@H]2[C@@H](CO)O1)NCc1ccccc1", "activity change, negative = inhibition": "6.59% (inactive)"}
{"test": "antibacterial activity against Clostridioides difficile – 10-point retest, dose response (AID 1259246)", "settings": "Clostridioides difficile clinical isolate growth, OD600, 24 h; at 68 µM (top of the series)"}
{"smiles": "O=C(C[C@H]1C[C@@H]2c3cc(NC(=O)C4CCC4)ccc3O[C@@H]2[C@@H](CO)O1)NCCN1CCCCC1", "activity change, negative = inhibition": "-0.905% (inactive)"}
{"test": "antibacterial activity against Clostridioides difficile – 10-point retest, dose response (AID 1259246)", "settings": "Clostridioides difficile clinical isolate growth, OD600, 24 h; at 120 µM (top of the series)"}
{"smiles": "Cc1ccc(S(=O)(=O)N[C@@H]2CC[C@H](CCNS(=O)(=O)Cc3ccccc3)O[C@H]2CO)cc1", "activity change, negative = inhibition": "-2.21% (inactive)"}
{"smiles": "C/C=C/c1ccc2c(c1)O[C@H](CN(C)Cc1ccc(F)cc1)[C@H](C)CN([C@H](C)CO)S2(=O)=O", "activity change, negative = inhibition": "11.8% (inactive)"}
{"smiles": "O=C(C[C@H]1C[C@H]2c3cc(NC(=O)Nc4ccc(F)cc4)ccc3O[C@H]2[C@H](CO)O1)NC1CCCCC1", "activity change, negative = inhibition": "2.71% (inactive)"}
{"smiles": "CCCC#Cc1ccc2c(c1)O[C@H](CN(C)Cc1ccc3c(c1)OCO3)[C@H](C)CN([C@H](C)CO)S2(=O)=O", "activity change, negative = inhibition": "33% (inactive)"}
{"smiles": "O=C(C[C@H]1C[C@H]2c3cc(NS(=O)(=O)c4ccc(F)cc4)ccc3O[C@H]2[C@@H](CO)O1)NCc1ccc(-c2ccccc2)cc1", "activity change, negative = inhibition": "10.6% (inactive)"}
{"smiles": "C[C@@H]1CN([C@@H](C)CO)C(=O)Cc2cc(NC(=O)c3ccncc3)ccc2O[C@@H]1CN(C)Cc1ccc(-c2ccccc2)cc1", "activity change, negative = inhibition": "19.7% (inactive)"}
{"smiles": "CO[C@@H]1CN(C)C(=O)c2cc(NC(=O)c3ccc(-c4ccccc4)cc3)ccc2OC[C@H](C)NC[C@@H]1C", "activity change, negative = inhibition": "31.8% (inactive)"}
{"smiles": "COc1ccc(NC(=O)Nc2cccc3c2O[C@H](CN(C)Cc2ccc(Oc4ccccc4)cc2)[C@H](C)CN([C@H](C)CO)C3=O)cc1", "activity change, negative = inhibition": "-0.653% (inactive)"}
{"smiles": "COc1ccc(NC(=O)Nc2cccc3c2O[C@@H](CN(C)C(=O)NC2CCCCC2)[C@H](C)CN([C@H](C)CO)C3=O)cc1", "activity change, negative = inhibition": "1.64% (inactive)"}
{"smiles": "C[C@@H]1CN([C@@H](C)CO)S(=O)(=O)c2ccc(C#CC3CCCC3)cc2O[C@H]1CN(C)Cc1cccnc1", "activity change, negative = inhibition": "23.5% (inactive)"}
{"smiles": "C[C@@H]1CN([C@H](C)CO)C(=O)c2cccc(NC(=O)Nc3ccc4c(c3)OCO4)c2O[C@H]1CN(C)Cc1ccc(-c2ccccc2)cc1", "activity change, negative = inhibition": "6.58% (inactive)"}
{"smiles": "Cc1ccc(S(=O)(=O)N[C@H]2CC[C@H](CCNS(=O)(=O)Cc3ccccc3)O[C@H]2CO)cc1", "activity change, negative = inhibition": "-4.09% (inactive)"}
{"smiles": "COc1ccc(NC(=O)Nc2cccc3c2O[C@H](CN(C)Cc2ccc(Oc4ccccc4)cc2)[C@@H](C)CN([C@H](C)CO)C3=O)cc1", "activity change, negative = inhibition": "17.1% (inactive)"}
{"smiles": "COc1ccc(S(=O)(=O)N(C)C[C@H]2Oc3c(NS(=O)(=O)c4ccccc4)cccc3C(=O)N([C@H](C)CO)C[C@@H]2C)cc1", "activity change, negative = inhibition": "28% (inactive)"}
{"smiles": "CO[C@H]1CN(C)C(=O)c2ccc(NC(=O)c3ccc(-c4ccccc4)cc3)cc2OC[C@H](C)NC[C@H]1C", "activity change, negative = inhibition": "4.8% (inactive)"}
{"smiles": "CC(C)C#Cc1ccc2c(c1)O[C@H](CN(C)CC1CCOCC1)[C@H](C)CN([C@@H](C)CO)S2(=O)=O", "activity change, negative = inhibition": "4.6% (inactive)"}
{"smiles": "CNC[C@H]1Oc2ccc(NC(=O)C3CC3)cc2CC(=O)N([C@H](C)CO)C[C@H]1C", "activity change, negative = inhibition": "-1.55% (inactive)"}
{"smiles": "C[C@@H]1CCCCO[C@H](CN(C)S(=O)(=O)c2ccc(F)cc2)[C@@H](C)CN([C@@H](C)CO)C(=O)c2cc(NC(=O)Nc3cccc4ccccc34)ccc2O1", "activity change, negative = inhibition": "19.1% (inactive)"}
{"smiles": "COc1ccc(CN(C)C[C@@H]2OCCCC[C@H](C)Oc3ccc(NC(=O)Nc4cccc5ccccc45)cc3C(=O)N([C@@H](C)CO)C[C@H]2C)cc1", "activity change, negative = inhibition": "42% (inactive)"}
{"smiles": "C[C@H](CO)N1C[C@H](C)[C@@H](CN(C)Cc2ccc(-c3ccccc3)cc2)Oc2c(NC(=O)Nc3ccc(C(F)(F)F)cc3)cccc2C1=O", "activity change, negative = inhibition": "12.2% (inactive)"}
{"smiles": "CC(C)NC(=O)Nc1ccc2c(c1)CC(=O)N([C@@H](C)CO)C[C@@H](C)[C@@H](CN(C)Cc1ccc(-c3ccccc3)cc1)O2", "activity change, negative = inhibition": "25% (inactive)"}
{"smiles": "C[C@@H]1CN([C@H](C)CO)S(=O)(=O)c2ccc(C#CC3CCCC3)cc2O[C@H]1CN(C)Cc1cncnc1", "activity change, negative = inhibition": "38.8% (inactive)"}
{"smiles": "COc1ccc(NC(=O)Nc2cccc3c2O[C@@H](CN(C)Cc2ccc(Oc4ccccc4)cc2)[C@H](C)CN([C@H](C)CO)C3=O)cc1", "activity change, negative = inhibition": "16.6% (inactive)"}
{"smiles": "C[C@H]1CN([C@@H](C)CO)S(=O)(=O)c2ccc(C#CC3CCCCC3)cc2O[C@@H]1CN(C)Cc1cccnc1", "activity change, negative = inhibition": "20.8% (inactive)"}
{"smiles": "C[C@@H]1CN([C@@H](C)CO)C(=O)Cc2cc(NS(=O)(=O)c3cccs3)ccc2O[C@@H]1CN(C)S(=O)(=O)c1ccc(Cl)cc1", "activity change, negative = inhibition": "32.8% (inactive)"}
{"smiles": "C[C@@H]1CN([C@H](C)CO)S(=O)(=O)c2ccc(C#CC3CCCCC3)cc2O[C@H]1CN(C)Cc1cccnc1", "activity change, negative = inhibition": "18.8% (inactive)"}
{"smiles": "CNC[C@@H]1Oc2cc(Br)ccc2S(=O)(=O)N([C@H](C)CO)C[C@H]1C", "activity change, negative = inhibition": "2.27% (inactive)"}
{"smiles": "C[C@H]1CCCCO[C@@H](CN(C)S(=O)(=O)c2ccc(F)cc2)[C@@H](C)CN([C@@H](C)CO)C(=O)c2cc(NC(=O)Nc3cccc4ccccc34)ccc2O1", "activity change, negative = inhibition": "42.1% (inactive)"}
{"smiles": "C[C@@H]1CN([C@H](C)CO)C(=O)c2cc(NC(=O)c3ccccc3)ccc2O[C@@H](C)CCCCO[C@H]1CN(C)S(=O)(=O)c1ccc(F)cc1", "activity change, negative = inhibition": "10.1% (inactive)"}
{"smiles": "C[C@@H]1CN([C@H](C)CO)C(=O)Cc2cc(NC(=O)C3CC3)ccc2O[C@H]1CN(C)Cc1ccc(-c2ccccc2)cc1", "activity change, negative = inhibition": "18.8% (inactive)"}
{"smiles": "C[C@H](CO)N1C[C@H](C)[C@@H](CN(C)Cc2ccc(-c3ccccc3)cc2)Oc2ccc(NC(=O)C3CC3)cc2CC1=O", "activity change, negative = inhibition": "25.6% (inactive)"}
{"smiles": "C[C@@H]1CN([C@H](C)CO)C(=O)c2cc(NC(=O)Nc3cccc4ccccc34)ccc2O[C@@H](C)CCCCO[C@H]1CN(C)S(=O)(=O)c1ccc(F)cc1", "activity change, negative = inhibition": "38% (inactive)"}
{"smiles": "CC(C)CC#Cc1ccc2c(c1)O[C@H](CN(C)Cc1ccc3c(c1)OCO3)[C@@H](C)CN([C@@H](C)CO)S2(=O)=O", "activity change, negative = inhibition": "21.9% (inactive)"}
{"smiles": "C[C@H](CO)N1C[C@H](C)[C@@H](CN(C)C(=O)c2ccccc2)OCCCC[C@H](C)Oc2ccc(NC(=O)Nc3cccc4ccccc34)cc2C1=O", "activity change, negative = inhibition": "37.5% (inactive)"}
{"smiles": "C[C@@H]1CN([C@@H](C)CO)C(=O)Cc2cc(NC(=O)CCC(F)(F)F)ccc2O[C@H]1CN(C)Cc1ccc(-c2ccccc2)cc1", "activity change, negative = inhibition": "37.3% (inactive)"}
{"smiles": "CNC[C@@H]1Oc2ccc(NC(=O)CCCN(C)C)cc2CC(=O)N([C@H](C)CO)C[C@H]1C", "activity change, negative = inhibition": "2.33% (inactive)"}
{"test": "antibacterial activity against Clostridioides difficile – 10-point retest, dose response (AID 1259246)", "settings": "Clostridioides difficile clinical isolate growth, OD600, 24 h; at 135 µM (top of the series)"}
{"smiles": "O=S(=O)(Cc1ccccc1)NCC[C@H]1CC[C@H](NS(=O)(=O)c2ccc(F)cc2)[C@H](CO)O1", "activity change, negative = inhibition": "-6.92% (inactive)"}
{"smiles": "C[C@H]1CN([C@@H](C)CO)C(=O)Cc2cc(NC(=O)C3CC3)ccc2O[C@H]1CN(C)Cc1ccc(Oc2ccccc2)cc1", "activity change, negative = inhibition": "26.6% (inactive)"}
{"smiles": "C[C@H](CO)N1C[C@H](C)[C@H](CN(C)Cc2ccc(F)cc2)Oc2ncc(-c3cc4ccccc4o3)cc2C1=O", "activity change, negative = inhibition": "52.5% (inactive)"}
{"smiles": "C[C@@H]1CN([C@@H](C)CO)C(=O)Cc2cc(NC(=O)CCCN(C)C)ccc2O[C@@H]1CN(C)Cc1ccc(Oc2ccccc2)cc1", "activity change, negative = inhibition": "18% (inactive)"}
{"smiles": "COc1ccccc1CNC(=O)C[C@H]1C[C@@H]2c3cc(NC(=O)NC4CCCC4)ccc3O[C@@H]2[C@H](CO)O1", "activity change, negative = inhibition": "4.13% (inactive)"}
{"smiles": "CO[C@H]1CN(C)C(=O)c2cc(NC(=O)c3ccc(-c4ccccc4)cc3)ccc2OC[C@H](C)NC[C@@H]1C", "activity change, negative = inhibition": "34.1% (inactive)"}
{"smiles": "C[C@@H]1CN([C@H](C)CO)C(=O)Cc2cc(NS(C)(=O)=O)ccc2O[C@@H]1CN(C)Cc1ccc(-c2ccccc2)cc1", "activity change, negative = inhibition": "20% (inactive)"}
{"smiles": "O=C(C[C@H]1C[C@@H]2c3cc(NC(=O)Nc4ccc(F)cc4)ccc3O[C@@H]2[C@H](CO)O1)NC1CCCCC1", "activity change, negative = inhibition": "-1.13% (inactive)"}
{"smiles": "C[C@@H]1CN([C@H](C)CO)C(=O)Cc2cc(NC(=O)C3CC3)ccc2O[C@@H]1CN(C)Cc1ccc(C(F)(F)F)cc1", "activity change, negative = inhibition": "18% (inactive)"}
{"smiles": "Cc1ccc(S(=O)(=O)N(C)C[C@H]2Oc3ccc(NS(C)(=O)=O)cc3C(=O)N([C@@H](C)CO)C[C@H]2C)cc1", "activity change, negative = inhibition": "9.46% (inactive)"}
{"smiles": "C[C@@H]1CN([C@@H](C)CO)C(=O)Cc2cc(NC(=O)CCC(F)(F)F)ccc2O[C@H]1CN(C)Cc1ccc(Oc2ccccc2)cc1", "activity change, negative = inhibition": "8.79% (inactive)"}
{"smiles": "C[C@@H]1CN([C@H](C)CO)C(=O)Cc2cc(NC(=O)CCC(F)(F)F)ccc2O[C@H]1CN(C)Cc1ccc(-c2ccccc2)cc1", "activity change, negative = inhibition": "15.9% (inactive)"}
{"smiles": "CO[C@@H]1CN(C)C(=O)c2cc(NC(=O)c3nc4ccccc4s3)ccc2OC[C@@H](C)N(Cc2ccncc2)C[C@H]1C", "activity change, negative = inhibition": "14.2% (inactive)"}
{"smiles": "C[C@H]1CN([C@@H](C)CO)C(=O)c2cccc(NC(=O)Nc3ccc4c(c3)OCO4)c2O[C@H]1CN(C)Cc1ccc(-c2ccccc2)cc1", "activity change, negative = inhibition": "24.8% (inactive)"}
